According to patent US20170190671A1, “BIS(ARYL)CATECHOL DERIVATIVES AS HERBICIDES” (E I DU PONT DE NEMOURS AND COMPANY, priority 2014, published 2017):

Tests used:
Format in all cases: in vivo
[1] = system: wheat (Triticum aestivum); assay: Test A postemergence; conditions: Triticum aestivum, post-emergence, 240 h, 0 to 100 scale, read-out: Plant response rating, Wheat
Method in brief: (§1)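 Injury scores run from 0, no effect, to 100, complete control, judged by eye against untreated plants roughly 10 days after treatment. Chemicals carried a surfactant in a non-phytotoxic solvent and went onto loam–sand soil preemergence or onto one- to two-leaf seedlings postemergence.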

[2] = system: giant foxtail (Setaria faberii); assay: Test A postemergence; conditions: Setaria faberi, post-emergence, 240 h, 0 to 100 scale, read-out: Plant response rating, Foxtail, Giant
Method in brief: as §1

[3] = system: galium (catchweed bedstraw, Galium aparine); assay: Test A postemergence; conditions: Galium, post-emergence, 240 h, 0 to 100 scale, read-out: Plant response rating, Galium
Method in brief: as §1

[4] = system: blackgrass (Alopecurus myosuroides); assay: Test A postemergence; conditions: Alopecurus myosuroides, post-emergence, 240 h, 0 to 100 scale, read-out: Plant response rating, Blackgrass
Method in brief: as §1

[5] = system: pigweed (Amaranthus retroflexus); assay: Test A postemergence; conditions: Amaranthus retroflexus, post-emergence, 240 h, 0 to 100 scale, read-out: Plant response rating, Pigweed
Method in brief: as §1

corn (Zea mays) = assay: Test A postemergence; conditions: Zea mays, post-emergence, 240 h, 0 to 100 scale
Method in brief: as §1

[6] = system: Italian ryegrass (Lolium multiflorum); assay: Test A postemergence; conditions: Lolium multiflorum, post-emergence, 240 h, 0 to 100 scale, read-out: Plant response rating, Ryegrass, Italian
Method in brief: as §1

kochia (Kochia scoparia) [7] = assay: Test A postemergence; conditions: Bassia scoparia, post-emergence, 240 h, 0 to 100 scale, read-out: Plant response rating, Kochia
Method in brief: as §1

[8] = system: barnyardgrass (Echinochloa crus-galli); assay: Test A postemergence; conditions: Echinochloa crus-galli, post-emergence, 240 h, 0 to 100 scale, read-out: Plant response rating, Barnyardgrass
Method in brief: as §1

[9] = system: ragweed (common ragweed, Ambrosia elatior); assay: Test A postemergence; conditions: Ambrosia artemisiifolia, post-emergence, 240 h, 0 to 100 scale, read-out: Plant response rating, Ragweed
Method in brief: as §1

[10] = system: giant foxtail (Setaria faberii); assay: Test A preemergence; conditions: Setaria faberi, pre-emergence, 240 h, 0 to 100 scale, read-out: Plant response rating, Foxtail, Giant
Method in brief: as §1

[11] = system: pigweed (Amaranthus retroflexus); assay: Test A preemergence; conditions: Amaranthus retroflexus, pre-emergence, 240 h, 0 to 100 scale, read-out: Plant response rating, Pigweed
Method in brief: as §1

[12] = system: Italian ryegrass (Lolium multiflorum); assay: Test A preemergence; conditions: Lolium multiflorum, pre-emergence, 240 h, 0 to 100 scale, read-out: Plant response rating, Ryegrass, Italian
Method in brief: as §1

kochia (Kochia scoparia) [13] = assay: Test A preemergence; conditions: Bassia scoparia, pre-emergence, 240 h, 0 to 100 scale, read-out: Plant response rating, Kochia
Method in brief: as §1

[14] = system: barnyardgrass (Echinochloa crus-galli); assay: Test A preemergence; conditions: Echinochloa crus-galli, pre-emergence, 240 h, 0 to 100 scale, read-out: Plant response rating, Barnyardgrass
Method in brief: as §1

[15] = system: ragweed (common ragweed, Ambrosia elatior); assay: Test A preemergence; conditions: Ambrosia artemisiifolia, pre-emergence, 240 h, 0 to 100 scale, read-out: Plant response rating, Ragweed
Method in brief: as §1

[16] = system: pigweed (Amaranthus retroflexus); assay: Test C postemergence; conditions: Amaranthus retroflexus, post-emergence, 336 h, Postemergence, scale 0 to 100, read-out: Plant response rating, Pigweed
From the text: (§2) Seeds of plant species selected from blackgrass (Alopecurus myosuroides), Italian ryegrass (Lolium multiflorum), winter wheat (Triticum aestivum), galium (catchweed bedstraw, Galium aparine), corn (Zea mays), large (Lg) crabgrass (Digitaria sanguinalis), giant foxtail (Setaria faberii), johnsongrass (Sorghum halepense), lambsquarters (Chenopodium album), morningglory (Ipomoea coccinea), yellow nutsedge (Cyperus esculentus), pigweed (Amaranthus retroflexus), ragweed (common ragweed, Ambrosia elatior), soybean (Glycine max), barnyardgrass (Echinochloa crus-galli), oilseed rape (Brassica napus), waterhemp (common waterhemp, Amaranthus rudis), and velvetleaf (Abutilon theophrasti) were planted into a blend of loam soil and sand and treated preemergence with test chemicals formulated in a non-phytotoxic solvent mixture which included a surfactant.
(§3) At the same time, plants selected from these crop and weed species and also chickweed (common chickweed, Stellaria media), kochia (Kochia scoparia), and wild oat (Avena fatua), were planted in pots containing Redi-Earth® planting medium (Scotts Company, 14111 Scottslawn Road, Marysville, Ohio 43041) comprising spaghnum peat moss, vermiculite, wetting agent and starter nutrients and treated with postemergence applications of test chemicals formulated in the same manner. Plants ranged in height from 2 to 18 cm (1- to 4-leaf stage) for postemergence treatments. Treated plants and controls were maintained in a greenhouse for 13 to 15 days, after which time all species were compared to controls and visually evaluated. Plant response ratings, summarized in Table C, are based on a scale of 0 to 100 where 0 is no effect and 100 is complete control. A dash (-) response means no test result.

kochia (Kochia scoparia) [17] = assay: Test C postemergence; conditions: Bassia scoparia, post-emergence, Postemergence, scale 0 to 100, read-out: Plant response rating, Kochia
From the text: as §2, §3

[18] = system: sedge, umbrella (small-flower umbrella sedge, Cyperus difformis); assay: Test B flooded paddy; conditions: Cyperus difformis, 336 h; 250 g ai/ha, Flood, 13 to 15 days, scale 0 (no effect) to 100 (complete control); read-out: Plant response rating, Sedge, Umbrella
Method in brief: (§4)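 Greenhouse pots flooded to 3 cm above soil at time of treatment received compound via the water, which stayed at that level.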

[19] = system: ducksalad (Heteranthera limosa); assay: Test B flooded paddy; conditions: Heteranthera limosa, 336 h; 250 g ai/ha, Flood, 13 to 15 days, scale 0 (no effect) to 100 (complete control); read-out: Plant response rating, Ducksalad
Method in brief: as §4

rice (Oryza sativa) = assay: Test B flooded paddy; conditions: Oryza sativa, 336 h; 250 g ai/ha, Flood, 13 to 15 days, scale 0 (no effect) to 100 (complete control); read-out: Plant response rating, Rice
Method in brief: as §4

[20] = system: barnyardgrass (Echinochloa crus-galli); assay: Test B flooded paddy; conditions: Echinochloa crus-galli, 336 h; 250 g ai/ha, Flood, 13 to 15 days, scale 0 (no effect) to 100 (complete control); read-out: Plant response rating, Barnyardgrass
Method in brief: as §4

**Q.** How did the plant injury at 125 g/ha ([1]; 125 g ai/ha) turn out when `N#Cc1cccc(Oc2ncc(Cl)cn2)c1Oc1ncc(Br)cn1` [Compound 4, 2-[(5-bromo-2-pyrimidinyl)oxy]-3-[(5-chloro-2-pyrimidinyl)oxy]benzonitrile] was run?
**A.** 50%

**Q.** What about the plant injury at 500 g/ha ([1]; 500 g ai/ha) of the same molecule?
**A.** 100%

**Q.** And the pest or weed control at 125 g/ha ([2]; 125 g ai/ha)?
**A.** 100%

**Q.** What about the pest or weed control at 500 g/ha ([2]; 500 g ai/ha) of the same molecule?
**A.** 100%

**Q.** What about the pest or weed control at 125 g/ha ([3]; 125 g ai/ha) of the same molecule?
**A.** 100%

**Q.** What about the pest or weed control at 500 g/ha ([3]; 500 g ai/ha) of the same molecule?
**A.** 100%

**Q.** What about the pest or weed control at 125 g/ha ([4]; 125 g ai/ha) of the same molecule?
**A.** 100%

**Q.** What about the pest or weed control at 500 g/ha ([4]; 500 g ai/ha) of the same molecule?
**A.** 100%

**Q.** What about the pest or weed control at 125 g/ha ([5]; 125 g ai/ha) of the same molecule?
**A.** 100%

**Q.** What about the pest or weed control at 500 g/ha ([5]; 500 g ai/ha) of the same molecule?
**A.** 100%

**Q.** And the Corn plant response rating (crop injury, 0 = no effect, 100 = complete kill) at 125 g/ha (corn (Zea mays); 125 g ai/ha)?
**A.** 80%

**Q.** And the Corn plant response rating (crop injury, 0 = no effect, 100 = complete kill) at 500 g/ha (corn (Zea mays); 500 g ai/ha)?
**A.** 100%

**Q.** What about the pest or weed control at 125 g/ha ([6]; 125 g ai/ha) of the same molecule?
**A.** 100%

**Q.** What about the pest or weed control at 500 g/ha ([6]; 500 g ai/ha) of the same molecule?
**A.** 100%

**Q.** And the pest or weed control at 125 g/ha (kochia (Kochia scoparia) [7]; 125 g ai/ha)?
**A.** 100%

**Q.** What about the pest or weed control at 500 g/ha (kochia (Kochia scoparia) [7]; 500 g ai/ha) of the same molecule?
**A.** 100%

**Q.** What about the pest or weed control at 125 g/ha ([8]; 125 g ai/ha) of the same molecule?
**A.** 100%

**Q.** What about the pest or weed control at 500 g/ha ([8]; 500 g ai/ha) of the same molecule?
**A.** 100%

**Q.** And the pest or weed control at 125 g/ha ([9]; 125 g ai/ha)?
**A.** 100%

**Q.** And the pest or weed control at 500 g/ha ([9]; 500 g ai/ha)?
**A.** 100%

**Q.** And the pest or weed control at 125 g/ha ([10]; 125 g ai/ha)?
**A.** 100%

**Q.** And the pest or weed control at 500 g/ha ([10]; 500 g ai/ha)?
**A.** 100%

**Q.** What about the pest or weed control at 125 g/ha ([11]; 125 g ai/ha) of the same molecule?
**A.** 100%

**Q.** What about the pest or weed control at 500 g/ha ([11]; 500 g ai/ha) of the same molecule?
**A.** 100%

**Q.** What about the pest or weed control at 125 g/ha ([12]; 125 g ai/ha) of the same molecule?
**A.** 20%

**Q.** And the pest or weed control at 500 g/ha ([12]; 500 g ai/ha)?
**A.** 100%

**Q.** And the pest or weed control at 125 g/ha (kochia (Kochia scoparia) [13]; 125 g ai/ha)?
**A.** 90%

**Q.** What about the pest or weed control at 500 g/ha (kochia (Kochia scoparia) [13]; 500 g ai/ha) of the same molecule?
**A.** 100%

**Q.** What about the pest or weed control at 125 g/ha ([14]; 125 g ai/ha) of the same molecule?
**A.** 70%

**Q.** What about the pest or weed control at 500 g/ha ([14]; 500 g ai/ha) of the same molecule?
**A.** 100%

**Q.** And the pest or weed control at 125 g/ha ([15]; 125 g ai/ha)?
**A.** 80%

**Q.** And the pest or weed control at 500 g/ha ([15]; 500 g ai/ha)?
**A.** 100%

**Q.** What about the pest or weed control at 31 g/ha ([16]; 31 g ai/ha) of the same molecule?
**A.** 65%

**Q.** What about the pest or weed control at 62 g/ha ([16]; 62 g ai/ha) of the same molecule?
**A.** 80%

**Q.** And the pest or weed control at 125 g/ha ([16]; 125 g ai/ha)?
**A.** 95%

**Q.** What about the pest or weed control at 16 g/ha (kochia (Kochia scoparia) [17]; 16 g ai/ha) of the same molecule?
**A.** 60%

**Q.** And the pest or weed control at 31 g/ha (kochia (Kochia scoparia) [17]; 31 g ai/ha)?
**A.** 60%

**Q.** And the pest or weed control at 62 g/ha (kochia (Kochia scoparia) [17]; 62 g ai/ha)?
**A.** 80%

**Q.** And the pest or weed control at 125 g/ha (kochia (Kochia scoparia) [17]; 125 g ai/ha)?
**A.** 100%

**Q.** What about the pest or weed control at 250 g/ha [18] of the same molecule?
**A.** 80%

**Q.** What about the pest or weed control at 250 g/ha [19] of the same molecule?
**A.** 95%

**Q.** What about the plant injury at 250 g/ha (rice (Oryza sativa)) of the same molecule?
**A.** 0%

**Q.** What about the pest or weed control at 250 g/ha [20] of the same molecule?
**A.** 0%
